Measured values published in ChEMBL document CHEMBL4480461, “Karamomycins A-C: 2-Naphthalen-2-yl-thiazoles from Nonomuraea endophytica” (J Nat Prod, 2019).
Calls of active or inactive are those of the source.

Key:
Type in all cases: functional, organism-based
[1] = test system: Chlorella vulgaris; experiment: Antimicrobial activity against Chlorella vulgaris at 40 ug/disc by agar diffusion method
[2] = test system: Candida albicans; experiment: Antimicrobial activity against Candida albicans at 40 ug/disc by agar diffusion method
[3] = test system: Streptomyces viridochromogenes; experiment: Antimicrobial activity against Streptomyces viridochromogenes Tue57 at 40 ug/disc by agar diffusion method
[4] = test system: Staphylococcus aureus; experiment: Antimicrobial activity against Staphylococcus aureus at 40 ug/disc by agar diffusion method
[5] = test system: Chlorella sorokiniana; experiment: Antimicrobial activity against Chlorella sorokiniana at 40 ug/disc by agar diffusion method
[6] = test system: Escherichia coli; experiment: Antimicrobial activity against Escherichia coli at 40 ug/disc by agar diffusion method
[7] = test system: Bacillus subtilis; experiment: Antimicrobial activity against Bacillus subtilis ATCC 6051 at 40 ug/disc by agar diffusion method
[8] = test system: Desmodesmus subspicatus; experiment: Antimicrobial activity against Scenedesmus subspicatus at 40 ug/disc by agar diffusion method
[9] = test system: Rhizomucor miehei; experiment: Antimicrobial activity against Mucor miehei Tu 284 at 40 ug/disc by agar diffusion method

Measured: Activity

COc1cc(-c2nc(CO)cs2)c(O)c2ccccc12
inactive: all assays above

COc1cc(C2=N[C@H]([C@@H]3SC[C@H]4[C@@H]5SC[C@](C)(C(=O)N43)N5C)CS2)c(O)c2ccccc12
inactive: all assays above

COc1cc(C2=N[C@H](CO)CS2)c(O)c2ccccc12
inactive: all assays above
